In ChEMBL document CHEMBL1148672, “Mimicking the biological activity of diazobenzo[b]fluorene natural products with electronically tuned diazofluorene analogs” (2006):
Calls of active or inactive are those of the source. No cut-off for these calls is given here.

Legend:
Nucleic Acid [1] = assay: Conversion of type 1 supercoiled DNA to type 2 nicked DNA in presence of dithiothreitol; format: nucleic-acid assay; design: concentration or dose not given beside the values
Nucleic Acid [2] = assay: Conversion of type 1 supercoiled DNA to type 2 nicked DNA; format: nucleic-acid assay; design: concentration or dose not given beside the values
Nucleic Acid [3] = assay: Cleavage of supercoiled DNA plasmid pBR322 after 2 days; format: nucleic-acid assay
Nucleic Acid [4] = assay: Conversion of type 1 supercoiled DNA to type 2 nicked DNA in presence of dithiothreitol relative to Kinamycin D; format: nucleic-acid assay
Nucleic Acid [5] = assay: Cleavage of supercoiled DNA plasmid pBR322 after 2 days in presence of dithiothreitol; format: nucleic-acid assay
HeLa [6] = assay: Antiproliferative activity against HeLa cells at 100 nM; format: functional, cell-based; conditions: Homo sapiens
Nucleic Acid [7] = assay: Cleavage of supercoiled DNA plasmid pBR322 after 2 days in presence of NADPH; format: nucleic-acid assay
Nucleic Acid [8] = assay: Cleavage of supercoiled DNA plasmid pBR322 after 2 days in presence of sodium cyanide; format: nucleic-acid assay
HeLa [9] = assay: Antiproliferative activity against HeLa cells at 100 nM after 12 hrs; format: functional; conditions: Homo sapiens

SMILES	Activity (Nucleic Acid [1]) [%]	Activity (Nucleic Acid [2]) [%]	Activity (Nucleic Acid [3])	further results
[N-]=[N+]=C1c2ccccc2-c2cccc(Cl)c21	< 5	< 5	–	–
[N-]=[N+]=C1c2ccccc2-c2c(N)cccc21	18	44	Active	Activity (Nucleic Acid [4]): 64%; Activity (Nucleic Acid [5]): Active
COc1cccc2c1C(=O)c1ccccc1-2	–	–	inactive	–
CC(=O)O[C@@H]1c2c(c3c(=O)c4cccc(O)c4c(=O)c=3c2=[N+]=[N-])[C@H](O)[C@@H](OC(C)=O)[C@]1(C)O	28	< 5	inactive	Activity (Nucleic Acid [5]): Time-dependent effect
COc1cccc2c1C(=[N+]=[N-])c1ccccc1-2	41	11	–	Activity (HeLa [6]): Time-dependent effect; Activity (Nucleic Acid [4]): 150%; Activity (Nucleic Acid [7]): inactive; Activity (Nucleic Acid [8]): inactive; inhibition at 0.1 µM (HeLa [9]): 35%

Further lines, with some results ahead:

Activity (Nucleic Acid [1]) [%]	Activity (Nucleic Acid [2]) [%]	Activity (Nucleic Acid [3])	SMILES	further results
9	< 5	–	COc1ccc(OC)c2c1C(=[N+]=[N-])c1ccccc1-2	–
10	< 5	–	[N-]=[N+]=c1c2c(=O)ccc(=O)c=2c2ccccc12	–
< 5	< 5	–	[N-]=[N+]=C1c2ccccc2-c2c1cccc2[N+](=O)[O-]	–
< 5	< 5	–	[N-]=[N+]=C1c2ccccc2-c2c(Cl)cccc21	–
< 5	< 5	–	[N-]=[N+]=C1c2ccccc2-c2ccccc21	–
< 5	< 5	–	[N-]=[N+]=C1c2ccccc2-c2cccc([N+](=O)[O-])c21	–
13	< 5	–	COc1cccc2c1-c1ccccc1C2=[N+]=[N-]	–
–	–	inactive	Nc1cccc2c1-c1ccccc1C2=O	–
